Reference: patent US20250221953A1 (The University of Chicago, priority 2022, published 2025)
Counter-ions that a name gives are not always drawn. Like-named read-outs stand apart in the source and are kept apart here.

Tested on: Jurkat T cells
Format: cell-based, human
Conditions: IL-2 production level in treated group compared to control group, 48 hours treatment, then anti-CD3/anti-CD28 12 hours
Text: Two preliminary screens were designed and performed.
To construct “blood chemical compound library for cell-based screening purposes, components such as antibodies that are difficult to distinguish due to a wide variety, and some supplements that only function at a whole organism level including fish oils and herbs were excluded. Physiological ranges of serum levels of individual blood chemicals are available in the human metabolome database (https://hmdb.ca/) and applied in the experimental design. For first screen 1a, Jurkat T cells were treated with blood chemical library for 48 hours and then activated with 2.5 μg/mL anti-CD3 and 0.5 μg/mL anti-CD28 antibodies for another 12 hours, followed by measurement of IL-2 level in medium supernatant using ELISA kit (Biolegend). For first screen 1b, 1×10^5 PD-1^+ Jurkat T cells were co-cultured with 2×10^4 H596 (PD-L1^+) cells in a well of 96-well plate for 60 hours, and then activated with 2.5 μg/mL anti-CD3 and 0.5 μg/mL anti-CD28 antibodies for another 12 hours, followed by measurement of IL-2 level in medium supernatant using ELISA kit. Please also refer to Resources Table and Table 1-2 for more details.

Structure (SMILES) | Relative changed percentage (%) (Hydrochloride) | Relative changed percentage (%)
Cl.N[C@H]1C(O)O[C@H](CO)[C@@H](O)[C@@H]1O (stereo partly shown) [Glucosamine Hydrochloride] | −6.979% | –
NCC(=O)O [Glycine] | – | −8.966%
NCCc1c[nH]cn1 [HISTAMINE FREE BASE CRYSTALLINE, HISTAMINE FREE BASE] | – | −3.594%
OC[C@H]1O[C@@H](Oc2c[nH]c3ccccc23)[C@H](O)[C@@H](O)[C@@H]1O [INDOXYL beta-D-GLUCOSIDE] | – | 30.46%
O[C@H]1[C@H](O)[C@@H](O)[C@H](O)[C@@H](O)[C@H]1O [Inositol] | – | 15.38%
C[C@H](O)C(=O)[O-].[Na+] [L(+)LACTIC ACID SODIUM] | – | 5.082%
C[N+](C)(C)[C@@H](Cc1c[nH]c(=S)[nH]1)C(=O)[O-] [L-(+)-ERGOTHIONEINE INNER SALT] | – | −10.39%
O=C1O[C@H]([C@@H](O)CO)C(O)=C1O [L-ASCORBIC ACID] | – | 14.49%
N=C(N)NCCC[C@H](N)C(=O)O [L-Arginine] | – | 10.75%
NC(=O)C[C@H](N)C(=O)O [L-Asparagine] | – | 28.4787%
N[C@@H](CC(=O)O)C(=O)O [L-Aspartic Acid] | – | −9.615%
N[C@@H](CC(=O)[O-])C(=O)[O-].[K+].[K+] [L-Aspartic acid potassium salt] | – | 4.421%
NC(=O)NCCC[C@H](N)C(=O)O [L-CITRULLINE] | – | −3.384%
N[C@@H](CS)C(=O)O [L-CYSTEINE BIOULTRA,, L-CYSTEINE] | – | −22.74%
N[C@@H](CS)C(=O)O [L-Cysteine] | – | 32.82%
N[C@@H](CSSC[C@H](N)C(=O)O)C(=O)O [L-Cystine] | – | −19.73%
N[C@@H](CCC(=O)N[C@@H](CS)C(=O)NCC(=O)O)C(=O)O [L-GLUTATHIONE REDUCED] | – | 48.28%
N[C@@H](CCC(=O)O)C(=O)O [L-Glutamic Acid] | – | 2.2718%
NC(=O)CC[C@H](N)C(=O)O [L-Glutamine] | – | 25.52%
Cl.N[C@@H](Cc1c[nH]cn1)C(=O)O [L-Histidine hydrochloride] | – | 3.531%
CC[C@H](C)[C@H](N)C(=O)O [L-Isoleucine] | – | −8.642%
CC(C)C[C@H](N)C(=O)O [L-Leucine] | – | −7.16%

Structure (SMILES) | Relative changed percentage (%) (Hydrochloride) | Relative changed percentage (%)
Cl.NCCCC[C@H](N)C(=O)O [L-Lysine hydrochloride] | – | −1.605%
CSCC[C@H](N)C(=O)O [L-Methionine] | – | −11.84%
Cl.NCCC[C@H](N)C(=O)O [L-ORNITHINE MONOHYDROCHLORIDE] | – | 8.054%
N[C@@H](Cc1ccccc1)C(=O)O [L-Phenylalanine] | – | −17.2378%
O=C(O)[C@@H]1CCCN1 [L-Proline] | – | −3.935%
N[C@@H](CO)C(=O)O [L-Serine] | – | −22.11%
N[C@@H](Cc1cc(I)c(Oc2cc(I)c(O)c(I)c2)c(I)c1)C(=O)O [L-THYROXINE] | – | 18.7243%
C[C@@H](O)[C@H](N)C(=O)O [L-Threonine] | – | −6.543%
N[C@@H](Cc1c[nH]c2ccccc12)C(=O)O [L-Tryptophan] | – | 1.358%
N[C@@H](Cc1ccc(O)cc1)C(=O)O [L-Tyrosine] | – | −13.45%
CC(C)[C@H](N)C(=O)O [L-Valine] | – | 5.296%
N[C@@H](CCC(=O)N[C@@H](CS)C(=O)NCC(=O)O)C(=O)O [L-glutathione] | – | 13.46%
[S]=[Pb] [LEAD(II) SULFIDE] | – | −13.63%
CC(=O)CC(=O)[O-].[Li+] [LITHIUM ACETOACETATE/Acetoacetic acid, LITHIUM ACETOACETATE] | – | −21.48%
CC1=C[C@H](O)CC(C)(C)[C@H]1/C=C/C(C)=C/C=C/C(C)=C/C=C/C=C(C)/C=C/C=C(C)/C=C/C1=C(C)C[C@@H](O)CC1(C)C [Lutein] | – | 31.92%
CC(C)=CCC/C(C)=C/C=C/C(C)=C/C=C/C(C)=C/C=C/C=C(C)/C=C/C=C(C)/C=C/C=C(\C)CCC=C(C)C [Lycopene] | – | 30%
[Cl-].[Cl-].[Mg+2] [MAGNESIUM CHLORIDE ANHYDROUS] | – | 31.9%
COc1ccc2[nH]cc(CCNC(C)=O)c2c1 [MELATONIN CRYSTALLINE/melatonin, melatonin] | – | 56.15%
[Cl][Hg][Cl] [MERCURY(II) CHLORIDE] | – | −2.995%
O[C@H]1[C@H](O)[C@@H](O)[C@H](O)[C@@H](O)[C@H]1O [MYO-INOSITOL] | – | 40.7157%
N[C@@H](CC(=O)[O-])C(=O)[O-].[Mg+2] [Magnesium Aspartate] | – | −4.156%
O=C(O)CC(O)C(=O)O (stereo not shown) [Malic acid] | – | 38.52%

Structure (SMILES) | Relative changed percentage (%) (Hydrochloride) | Relative changed percentage (%)
O=S(=O)([O-])[O-].[Mn+2] [Manganese sulfate] | – | 29.55%
CS(C)(=O)=O [Methylsulfonylmethane] | – | −17.53%
O=P([O-])(O)O.[K+] [Monopotassium Phosphate] | – | 28.67%
CCCCCCCCCCCCCC(=O)O [Myristic Acid] | – | −17.39%
CCCC/C=C\CCCCCCCC(=O)O [Myristoleic acid] | – | −21.38%
CC(=O)N[C@H]1C(O)O[C@H](CO)[C@@H](O)[C@@H]1O (stereo partly drawn) [N-acetyl D-glucosamine] | – | −4.044%
NC[C@H](O)c1ccc(O)c(O)c1 [NOREPINEPHRINE] | – | 40.2469%
CCCCCCCC/C=C\CCCCCCCCCCCCCC(=O)O [Nervonic acid] | – | 37.68%
NC(=O)c1cccnc1 [Niacinamide] | – | 95.23%
O=C(O)c1cccnc1 [Nicotinic Acid] | – | 205.6%
COc1nc(N)nc2nc[nH]c12 [O-METHYLGUANINE] | – | 6.274%
O=C(O)C(=O)O [OXALIC ACID SODIUM SALT] | – | −16.88%
CC[C@H](C)[C@@H]1NC(=O)[C@H](Cc2ccc(O)cc2)NC(=O)[C@@H](N)CSSC[C@@H](C(=O)N2CCC[C@H]2C(=O)N[C@@H](CC(C)C)C(=O)NCC(N)=O)NC(=O)[C@H](CC(N)=O)NC(=O)[C@H](CCC(N)=O)NC1=O [OXYTOCIN] | – | −6.991%
CCCCCCCC/C=C\CCCCCCCC(=O)O [Oleic acid] | – | 77.53%
Oc1ccccc1 [PHENOL] | – | 26.79%
CC(C)CCCC(C)CCCC(C)CCCC(C)CC(=O)O (stereo not shown) [PHYTANIC ACID] | – | −18.61%
[Br-].[K+] [POTASSIUM BROMIDE] | – | 78.36%
[Cl-].[K+] [POTASSIUM CHLORIDE/potassium, POTASSIUM CHLORIDE] | – | 38.97%
c1ncc2[nH]cnc2n1 [PURINE] | – | 63.4263%
Cc1ncc(CO)c(CO)c1O [PYRIDOXINE] | – | 11.1111%
